Source: patent US20020165286A1, “Dermal anti-inflammatory composition” (priority 2000, published 2002)

System: not given
Experiment: not given
Conditions: systemic administration; cited from earlier work

| Compound | Anti-inflam. |
| --- | --- |
| C[C@H]1c2cccc(O)c2C(O)=C2C(=O)[C@]3(O)C(O)=C(C(N)=O)C(=O)[C@@H](N(C)C)[C@@H]3[C@@H](O)[C@@H]21 [Doxycyclin] | Yes |
| CC1=C(/C=C/C(C)=C/C=C/C(C)=C\C(=O)O)C(C)(C)CCC1 [Isotretinoin] | Yes |
| CN(C)c1ccc(O)c2c1C[C@H]1C[C@H]3[C@H](N(C)C)C(O)=C(C(N)=O)C(=O)[C@@]3(O)C(O)=C1C2=O [Minocyclin] | Yes |
| CN(C)[C@@H]1C(=O)C(C(N)=O)=C(O)[C@@]2(O)C(=O)C3=C(O)c4c(O)cccc4[C@@](C)(O)[C@H]3C[C@@H]12 [Tetracyclin] | Yes |

Same assay, conditions: topical administration; cited from earlier work

| Compound | Anti-inflam. |
| --- | --- |
| O=C(O)CCCCCCCC(=O)O [Azelaic acid] | Maybe |
| O=C(OOC(=O)c1ccccc1)c1ccccc1 [Benzoyl peroxide] | Maybe |
| CC1=C(/C=C/C(C)=C/C=C/C(C)=C/C(=O)O)C(C)(C)CCC1 [Tretinoin] | No |

System: not given
Experiment: not given
Conditions: systemic administration; cited from earlier work
Remark: another data set of the same source

| Compound | Teratogenic |
| --- | --- |
| C[C@H]1c2cccc(O)c2C(O)=C2C(=O)[C@]3(O)C(O)=C(C(N)=O)C(=O)[C@@H](N(C)C)[C@@H]3[C@@H](O)[C@@H]21 [Doxycyclin] | Yes |
| CC1=C(/C=C/C(C)=C/C=C/C(C)=C\C(=O)O)C(C)(C)CCC1 [Isotretinoin] | Yes |
| CN(C)c1ccc(O)c2c1C[C@H]1C[C@H]3[C@H](N(C)C)C(O)=C(C(N)=O)C(=O)[C@@]3(O)C(O)=C1C2=O [Minocyclin] | Yes |
| CN(C)[C@@H]1C(=O)C(C(N)=O)=C(O)[C@@]2(O)C(=O)C3=C(O)c4c(O)cccc4[C@@](C)(O)[C@H]3C[C@@H]12 [Tetracyclin] | Yes |

Same assay, conditions: topical administration; cited from earlier work

| Compound | Teratogenic |
| --- | --- |
| O=C(O)CCCCCCCC(=O)O [Azelaic acid] | No |
| CC1=C(/C=C/C(C)=C/C=C/C(C)=C/C(=O)O)C(C)(C)CCC1 [Tretinoin] | Maybe |

System: not given
Experiment: not given
Conditions: systemic administration; cited from earlier work
Remark: another data set of the same source

| Compound | Antibacterial |
| --- | --- |
| C[C@H]1c2cccc(O)c2C(O)=C2C(=O)[C@]3(O)C(O)=C(C(N)=O)C(=O)[C@@H](N(C)C)[C@@H]3[C@@H](O)[C@@H]21 [Doxycyclin] | Yes |
| CC1=C(/C=C/C(C)=C/C=C/C(C)=C\C(=O)O)C(C)(C)CCC1 [Isotretinoin] | Yes |
| CN(C)c1ccc(O)c2c1C[C@H]1C[C@H]3[C@H](N(C)C)C(O)=C(C(N)=O)C(=O)[C@@]3(O)C(O)=C1C2=O [Minocyclin] | Yes |
| CN(C)[C@@H]1C(=O)C(C(N)=O)=C(O)[C@@]2(O)C(=O)C3=C(O)c4c(O)cccc4[C@@](C)(O)[C@H]3C[C@@H]12 [Tetracyclin] | Yes |

Same assay, conditions: topical administration; cited from earlier work

| Compound | Antibacterial |
| --- | --- |
| O=C(O)CCCCCCCC(=O)O [Azelaic acid] | Yes |
| O=C(OOC(=O)c1ccccc1)c1ccccc1 [Benzoyl peroxide] | Yes |
| CC1=C(/C=C/C(C)=C/C=C/C(C)=C/C(=O)O)C(C)(C)CCC1 [Tretinoin] | No |

System: rhino mouse
Experiment: Rhino mouse study: comedolytic activity (number of utriculi, epidermal thickness)
Type: in vivo, rhino mice (RHJ/LeJ Rhino, hr^rh/hr^rh)
Conditions: test substance dissolved in ethanol only
Description: The rhino mouse is an in vivo model for the study of hyperplastic and comedolytic potency of various drugs used in the treatment of acne. The rhino mouse has follicles on the skin. The orifices are distended with horny material and these structures resembles human microcomedones and are referred to as utriculi or pseudocomedones.
In the present study, the comedolytic activity and skin irritation potential of 3% w/v solutions of test substance (1) in different vehicles was studied in order to select a formulation suited for topical application. Selected commercial acne products were included in the study for the purpose of comparison.
105 female rhino mice (RHJ/LeJ Rhino, hr^rh/hr^rh) aged 6-9 weeks were obtained from M&B A/S, Denmark. The mice were placed in cages with free access to a commercial rodent diet (Altromin 1324) and tap water. […]
The mice were killed one day after the end of the treatment period and the dorsal skin was removed. […] These slices were evaluated under the microscope (Nikon LABOPHOT-2) for the number of epidermal utriculi and utriculi profile (×200) and the epidermal thickness (×400), and the mean value and standard deviation for each animal was estimated. […]

| Compound | reduction in the number of utriculi [%] |
| --- | --- |
| Cc1cc(F)ccc1Nc1ccc(C(=O)c2ccccc2C)c(Cl)c1 [test substance (1), 2-chloro-4-(4-fluoro-2-methyl-phenylamino)-2′-methylbenzophenone] | 51 |

System: not given
Experiment: not given
Conditions: systemic administration; cited from earlier work
Remark: another data set of the same source

| Compound | Potential irritant |
| --- | --- |
| C[C@H]1c2cccc(O)c2C(O)=C2C(=O)[C@]3(O)C(O)=C(C(N)=O)C(=O)[C@@H](N(C)C)[C@@H]3[C@@H](O)[C@@H]21 [Doxycyclin] | No |
| CC1=C(/C=C/C(C)=C/C=C/C(C)=C\C(=O)O)C(C)(C)CCC1 [Isotretinoin] | Yes |
| CN(C)[C@@H]1C(=O)C(C(N)=O)=C(O)[C@@]2(O)C(=O)C3=C(O)c4c(O)cccc4[C@@](C)(O)[C@H]3C[C@@H]12 [Tetracyclin] | No |

Same assay, conditions: topical administration; cited from earlier work

| Compound | Potential irritant |
| --- | --- |
| O=C(O)CCCCCCCC(=O)O [Azelaic acid] | Yes |
| O=C(OOC(=O)c1ccccc1)c1ccccc1 [Benzoyl peroxide] | Yes |
| CC1=C(/C=C/C(C)=C/C=C/C(C)=C/C(=O)O)C(C)(C)CCC1 [Tretinoin] | Yes |

System: not given
Experiment: not given
Conditions: systemic administration; cited from earlier work
Remark: another data set of the same source

| Compound | Comedolytic |
| --- | --- |
| C[C@H]1c2cccc(O)c2C(O)=C2C(=O)[C@]3(O)C(O)=C(C(N)=O)C(=O)[C@@H](N(C)C)[C@@H]3[C@@H](O)[C@@H]21 [Doxycyclin] | No |
| CC1=C(/C=C/C(C)=C/C=C/C(C)=C\C(=O)O)C(C)(C)CCC1 [Isotretinoin] | Yes |
| CN(C)c1ccc(O)c2c1C[C@H]1C[C@H]3[C@H](N(C)C)C(O)=C(C(N)=O)C(=O)[C@@]3(O)C(O)=C1C2=O [Minocyclin] | No |
| CN(C)[C@@H]1C(=O)C(C(N)=O)=C(O)[C@@]2(O)C(=O)C3=C(O)c4c(O)cccc4[C@@](C)(O)[C@H]3C[C@@H]12 [Tetracyclin] | No |

Same assay, conditions: topical administration; cited from earlier work

| Compound | Comedolytic |
| --- | --- |
| O=C(O)CCCCCCCC(=O)O [Azelaic acid] | Yes |
| O=C(OOC(=O)c1ccccc1)c1ccccc1 [Benzoyl peroxide] | Somewhat |
| CC1=C(/C=C/C(C)=C/C=C/C(C)=C/C(=O)O)C(C)(C)CCC1 [Tretinoin] | Yes |
